Series [1] is described as follows: Measurement of body temperature increase (rectal body temperature). As to conditions: Crl/SD rats, oral, 1 mg/mL at 10 mL/kg. Format: in vivo, rat. How it is done:
Test Animals: Selection of rats (Crl/SD rats, 7 weeks, male) for this study was based on rectal body temperature measured during the morning of the day of dosing. In addition, animals selected for this study were acclimated to both the rectal measurement procedure and to being handled and dosed to minimize spontaneous, stress-induced, increases in body temperature. The study was conducted in the animal care laboratories where the room temperature and humidity were kept. The rats were free to move and food and water during the study. Each rat was numbered with color line on the tail, housed in each cage and permitted the normal range of movement. Immediately before each body temperature was measured, they transferred to a single cage at each measurement. To reduce stress which affected the body temperature, the rats were covered with towels at the measurement. The thermistor probe was then carefully inserted into the rectum of each rat and left in place until the value on the digital display had stabilized.
Assays: On the day before dosing, rectal body temperatures were measured at 9:00, 10:00, 11:00, 12:30, 13:30, 14:30 and 15:30 to familiarize the animals with the measurement procedure prior to administration of the test or control treatments. The rats were also dosed by oral gavage without vehicle at 12:30 to acclimate and familiarized the animals with the handling and dosing procedure.
On the day of dosing, only rats whose rectal body temperatures were within the range of 37.0° C. to 37.7° C. were selected for this study. Rectal body temperatures were measured at 9:00, 10:00 and 11:00. Rats whose rectal body temperatures were over 37.9° C. at 10:00, and were outside the range of 37.0° C. to 37.7° C. at 11:00 were excluded from the study. The selected rats were divided to several groups based on their rectal body temperatures at 11:00. Rectal body temperatures of the selected rats were measured again at 12:30, and any rats whose rectal body temperature was 38.0° C. or greater were excluded from the study.
Following the group assignment, test compounds or vehicle was administrated to the rats. Each test compound was dissolved in 0.5% methylcellurose and the final concentration of the compound was adjusted to 1 mg/mL. Test compound was orally administrated in a volume 10 mL/kg once. 10 mL/kg of vehicle (0.5% methylcellurose) was administered to the vehicle group. The rectal body temperatures were measured 0.5, 1 and 2 hrs after the administration. The study was conducted in the animal care laboratories where the room temperature and humidity were kept.
Body temperature increase (ΔTb) was calculated from the difference from an average of the vehicle group at each time point.

Series [2] deals with T1, human recombinant TRPV1 (Homo sapiens (Human), UniProt Q8NER1). In words: TRPV1 Capsaicin-Based Assay (Protocol 2, TRPV1/CHO cells, Fluo-4, FLIPR). It counts as cell-based. The procedure: (§1) For Protocol 2, a Chinese Hamster Ovary cell line (CHO) that has been engineered to constitutively express human recombinant TRPV1 was used (TRPV1/CHO cells). The TRPV1/CHO cell line was generated as described below.
T1 sequence (Q8NER1 whole entry): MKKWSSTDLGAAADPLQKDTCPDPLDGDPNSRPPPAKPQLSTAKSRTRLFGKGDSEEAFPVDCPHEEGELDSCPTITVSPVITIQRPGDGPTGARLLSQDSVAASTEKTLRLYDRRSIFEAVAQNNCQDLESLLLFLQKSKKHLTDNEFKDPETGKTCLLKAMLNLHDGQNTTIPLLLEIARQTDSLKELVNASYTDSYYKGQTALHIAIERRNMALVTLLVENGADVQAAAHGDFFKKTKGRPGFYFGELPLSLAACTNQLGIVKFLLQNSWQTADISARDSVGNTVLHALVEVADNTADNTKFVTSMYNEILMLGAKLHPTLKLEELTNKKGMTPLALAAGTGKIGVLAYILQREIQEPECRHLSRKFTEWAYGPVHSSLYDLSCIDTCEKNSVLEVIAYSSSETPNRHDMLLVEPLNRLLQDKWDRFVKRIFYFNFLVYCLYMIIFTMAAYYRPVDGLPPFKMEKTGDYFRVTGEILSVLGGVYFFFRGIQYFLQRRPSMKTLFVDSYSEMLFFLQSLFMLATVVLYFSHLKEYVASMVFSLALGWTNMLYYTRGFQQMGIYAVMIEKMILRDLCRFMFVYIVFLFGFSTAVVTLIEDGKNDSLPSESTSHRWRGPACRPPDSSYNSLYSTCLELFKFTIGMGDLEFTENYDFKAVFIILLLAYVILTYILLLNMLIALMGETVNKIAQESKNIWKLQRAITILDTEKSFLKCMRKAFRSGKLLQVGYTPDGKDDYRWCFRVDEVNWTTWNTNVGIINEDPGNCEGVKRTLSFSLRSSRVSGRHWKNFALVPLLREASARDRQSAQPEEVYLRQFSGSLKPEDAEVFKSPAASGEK
One day prior to assay, TRPV1/CHO cells were seeded in 96-well clear-bottom black plates (20,000 cells/well) in growth media. On the day of the experiment, the cells were washed with 0.2 mL 1× Hank's Balanced Salt Solution (Life Technologies) containing 1.6 mM CaCl2 and 20 mM HEPES, pH 7.4 (“wash buffer”). Subsequently, the cells were loaded by incubation in 0.1 mL of wash buffer containing Fluo-4 at 3 μM final concentration. After 1 hour, the cells were washed twice with 0.2 mL wash buffer and resuspended in 0.1 mL wash buffer. The plates were then transferred to a Fluorescence Imaging Plate Reader (Molecular Devices). Fluorescence intensity was monitored for 15 seconds to establish a baseline. Subsequently, test compounds diluted in assay buffer (1× Hank's Balanced Salt Solution containing 1 mM CaCl2 and 20 mM HEPES, pH 7.4) containing 1% DMSO were added to the cell plate and fluorescence was monitored for 2 minutes. […] Human TRPV1 was then activated by the addition of 50 μL capsaicin (100 nM final concentration) and plates incubated for an additional 3 min. Data were collected over the entire time course and analyzed using Excel and the curve-fitting formula GraphPad Prism.

Series [3] addresses T1, human recombinant TRPV1. Briefly: TRPV1 pH-Based Assay (Protocol 2, Ca2+ response in TRPV1/CHO cells, Fura-2). Format: cell-based. How it is done: as §1
TRPV1/CHO cells were seeded in the 96-well clear-bottom black-wall plate (Nunc) at densities of 1-2×10^4 cells/well and grown in 100 μL of culture medium (alpha-MEM supplemented with 10% FBS, 20 mM HEPES, 1 mg/mL geneticin and 1% antibiotic-antimycotic mixed stock solution) for 1-2 days before the experiment.
(2) The 96-well plate was incubated at 37° C. for 45 min.
(3) The loading buffer was removed from each well. […] The wells were then refilled with 80 μL of measuring buffer.
(4) After an incubation at 4° C. for 15 min, the 96-well plate was transferred to FDSS-3000 (Hamamatsu Photonics, Japan).
(5) The Fura-2 fluorescent intensity was monitored at a wavelength of 340 nm and at 380 nm, respectively, at a rate of 0.5 Hz for a total of 240 seconds. After 16 time points (32 sec) of baseline detection, 20 μL of agonist solution was added to each well. The final volume was 100 μL/well.
(6) Fluorescence intensity ratio refers to the fluorescence intensity at 340 nm over the fluorescence intensity at 380 nm at a particular time point. The baseline was set as the average of the fluorescent intensity ratios for the first 16 time points before the addition of agonist solution. The maximum response was the highest fluorescent intensity ratio during the 60 time points following addition of agonist solution.
(7) Maximal signal ratios from each well were calculated as output data using the FDSS-3000 analysis program. Data were analyzed using Excel (Microsoft) and XLfit (idbs) software.
Two different agonist solutions with different H2SO4 concentrations were used for the pH assay (FIG. 3A). For one half of a 96-well plate one agonist solution was used, for the other half the other agonist solution. The agonist solutions were obtained by diluting sulfuric acid (H2SO4, 1M) with measuring buffer. The concentrations for the two agonist solutions were determined as described above in Section 2 of Protocol 2.
The sulfuric acid concentrations between the two agonist solutions differed by 0.5 mM. […] After 1:4 dilution of the agonist solutions, the final sulfuric acid concentration was 3.2 mM and 3.3 mM, respectively. The resulting pH value for the pH assay was 5.0 to 5.1.
Test compounds were dissolved in DMSO to yield 1 mM stock solutions. […] The thereby-obtained solutions were further diluted in measuring buffer (1:100) as 10× stock serial dilutions with a DMSO concentration of 1%. 10 μL of a 10× stock was added into each well at step 3.3.(4) of Protocol 2.
Steps (1) and (2) of this Assay were the same as steps 2.2.(1) and 2.2.(2) of Protocol 2, respectively.
(3) The cells were washed twice with 150 μL of measuring buffer (mentioned in 2.2.(3) of Protocol 2, no probenecid). The wells were subsequently refilled with 70 μL of measuring buffer.
(4) Either 10 μl of measuring buffer or 10 μL of 10× stock serial dilution of test compound (described in 3.2. above) were applied to each well. Usually, only one test compound was tested per 96-well plate. The number of replicates per 96-well plate for a particular antagonist at a particular concentration was 7×2 since two different sulfuric acid concentrations were used per 96-well plate (N=7×2) (FIG. 3).
Step (5) was the same as 2.2.(4) above.
(6) Fura-2 fluorescent intensity was monitored as described in 2.2.(5) above. After 16 time points of baseline detection, 20 μL of agonist solution (measuring buffer titrated with H2SO4 to yield pH 5.0-5.1 when mixed 1:4 with the measuring buffer containing test compound) was added to each well (final volume 100 μL/well).
Steps (7) and (8) were as described in 2.2.(6) and 2.2.(7) above, respectively.
(1) The pH values of the buffer in the wells of A1→H1 and A7→H7 (longitudinally; FIG. 3) were measured one by one using a portable pH meter.

The mark [4] stands for this setting: TRPV1/CHO cells, capsaicin 100 nM final, read-out: IC50 value by the Capsaicin-Based Assay.
[5] abbreviates: TRPV1/CHO cells, pH 5.0-5.1, read-out: IC50 value by the pH-Based Assay.

With `Cc1cc(NC(=O)N2CC=C(c3ncc(C[C@@H](O)CO)cc3F)CC2)ccc1OC(F)(F)F` [ACB, (R)-5-(2,3-dihydroxypropyl)-3-fluoro-N-(3-methyl-4-(trifluoromethoxy)phenyl)-5′,6-dihydro-[2,4′-bipyridine]-1′(2′H)-carboxamide], in series [1], the Body temperature increase result is “less than 0.5 °C”. As to `Cc1cc(NC(=O)N2CC=C(c3ncc(C[C@H](O)CO)cc3C)CC2)ccc1C(F)(F)F` [ACL, (S)-4-(5-(2,3-dihydroxypropyl)-3-methylpyridin-2-yl)-N-(3-methyl-4-(trifluoromethyl)phenyl)-5,6-dihydropyridine-1(2H)-carboxamide], the Body temperature increase entry in series [1] was “less than 0.5 °C”. Consider `C[C@H]1CN(c2ncc(C[C@@H](O)CO)cc2F)CCN1C(=O)Nc1nc2ccc(Cl)cc2s1` [AEK], for which the IC50 on human recombinant TRPV1 [2] (setting [4]) and at human recombinant TRPV1 [3] (setting [5]) was ≤ 50 nM in each case. As for `Cc1cc(NC(=O)N2CC=C(c3ncc(C[C@@H](O)CO)cc3Cl)CC2)ccc1OC(F)(F)F` [AAS, (R)-4-(3-Chloro-5-(2,3-dihydroxypropyl)pyridin-2-yl)-N-(3-methyl-4-(trifluoromethoxy)phenyl)-5,6-dihydropyridine-1(2H)-carboxamide], the 50% inhibitory concentration (IC50) at human recombinant TRPV1 [2] (setting [4]) and on human recombinant TRPV1 [3] (setting [5]) was ≤ 50 nM throughout. `Cc1cc(C[C@@H](O)CO)cnc1N1CCN(C(=O)Nc2nc3ccc(Cl)cc3s2)[C@H](C)C1` [ADJ, (R)-N-(6-chlorobenzo[d]thiazol-2-yl)-4-{5-[(R)-2,3-dihydroxypropyl]-3-methylpyridin-2-yl}-2-methylpiperazine-1-carboxamide]: the IC50 at human recombinant TRPV1 [2] (setting [4]) and on human recombinant TRPV1 [3] (setting [5]) was ≤ 50 nM in each case.

Consider `C[C@H]1CN(c2ncc(C[C@H](O)CO)cc2Cl)CCN1C(=O)Nc1nc2ccccc2s1` [AED], for which the IC50 at human recombinant TRPV1 [2] (setting [4]) and on human recombinant TRPV1 [3] (setting [5]) was ≤ 50 nM throughout. With `C[C@H]1CN(c2ncc(C[C@@H](O)CO)cc2Cl)CCN1C(=O)Nc1nc2ccc(F)cc2s1` [ADY], the IC50 at human recombinant TRPV1 [2] (setting [4]) and at human recombinant TRPV1 [3] (setting [5]) was ≤ 50 nM each time. With `Cc1cc2nc(NC(=O)N3CCN(c4ncc(C[C@@H](O)CO)cc4Cl)CC3)sc2cc1C` [AEH], the IC50 at human recombinant TRPV1 [2] (setting [4]) and on human recombinant TRPV1 [3] (setting [5]) was ≤ 50 nM in each case. Regarding `C[C@H]1CN(c2ncc(C[C@H](O)CO)cc2C(F)(F)F)CCN1C(=O)Nc1nc2ccc(F)cc2s1` [AGW], the half-maximal inhibitory concentration (IC50) at human recombinant TRPV1 [2] (setting [4]) and on human recombinant TRPV1 [3] (setting [5]) was ≤ 50 nM in each case. Regarding `Cc1cc(NC(=O)N2CCC(F)(c3ncc(C[C@@H](O)CO)cc3F)CC2)ccc1C(F)(F)F` [ACO, (R)-4-(5-(2,3-dihydroxypropyl)-3-fluoropyridin-2-yl)-4-fluoro-N-(3-methyl-4-(trifluoromethyl)phenyl)piperidine-1-carboxamide], the 50% inhibitory concentration (IC50) at human recombinant TRPV1 [2] (setting [4]) and on human recombinant TRPV1 [3] (setting [5]) was ≤ 50 nM throughout.

As to `C[C@H]1CN(C(=O)Nc2nc3ccc(Cl)cc3s2)CCN1c1ncc(C[C@@H](O)CO)cc1F` [AFR], the half-maximal inhibitory concentration (IC50) at human recombinant TRPV1 [2] (setting [4]) and on human recombinant TRPV1 [3] (setting [5]) was ≤ 50 nM throughout. For `Cc1cc(NC(=O)N2CCC(F)(c3ncc(C[C@H](O)CO)cc3Cl)CC2)ccc1C(F)(F)F` [ACS, (S)-4-(3-Chloro-5-(2,3-dihydroxypropyl)pyridin-2-yl)-4-fluoro-N-(3-methyl-4-(trifluoromethyl)phenyl)piperidine-1-carboxamide], the IC50 on human recombinant TRPV1 [2] (setting [4]) and on human recombinant TRPV1 [3] (setting [5]) was ≤ 50 nM each time.

As to `Cc1cc(NC(=O)N2CCC(F)(c3ncc(C[C@@H](O)CO)cc3C)CC2)ccc1OC(F)(F)F` [ACF, (R)-4-(5-(2,3-dihydroxypropyl)-3-methylpyridin-2-yl)-4-fluoro-N-(3-methyl-4-(trifluoromethoxy)phenyl)piperidine-1-carboxamide], the IC50 at human recombinant TRPV1 [2] (setting [4]) and at human recombinant TRPV1 [3] (setting [5]) was ≤ 50 nM in each case. Take `Cc1cc(NC(=O)N2CCC(F)(c3ncc(C[C@H](O)CO)cc3Cl)CC2)ccc1OC(F)(F)F` [ACT, (S)-4-(3-Chloro-5-(2,3-dihydroxypropyl)pyridin-2-yl)-4-fluoro-N-(3-methyl-4-(trifluoromethoxy)phenyl)piperidine-1-carboxamide]: the half-maximal inhibitory concentration (IC50) at human recombinant TRPV1 [2] (setting [4]) and on human recombinant TRPV1 [3] (setting [5]) was ≤ 50 nM in each case. As for `O=C(Nc1nc2cc(F)c(F)cc2s1)N1CCN(c2ncc(C[C@H](O)CO)cc2F)CC1` [AFB], the IC50 at human recombinant TRPV1 [2] and at human recombinant TRPV1 [3] was ≤ 50 nM in each case. Consider `Cc1cc(NC(=O)N2CCC(F)(c3ncc(C[C@@H](O)CO)cc3C)CC2)ccc1C(F)(F)F` [ACE, (R)-4-(5-(2,3-dihydroxypropyl)-3-methylpyridin-2-yl)-4-fluoro-N-(3-methyl-4-(trifluoromethyl)phenyl)piperidine-1-carboxamide], for which the 50% inhibitory concentration (IC50) at human recombinant TRPV1 [2] (setting [4]) and on human recombinant TRPV1 [3] (setting [5]) was ≤ 50 nM in each case. For `Cc1ccc2nc(NC(=O)N3CCN(c4ncc(C[C@H](O)CO)cc4F)C[C@@H]3C)sc2c1` [AEP], the IC50 at human recombinant TRPV1 [2] (setting [4]) and on human recombinant TRPV1 [3] (setting [5]) was ≤ 50 nM throughout.

The values above are taken from patent US8921373B2, “Compounds having TRPV1 antagonistic activity and uses thereof” (Shionogi & Co., Ltd., priority 2010, dated 2014).
